Reference: patent US20240409669A1, “Neutralizing Trivalent Protein-DNA Molecules (TRI-PDBODY) for SARS-COV-2 Infection Treatment” (priority 2021, published 2024)

Target: RBD of spike protein binding with ACE2 protein (Severe acute respiratory syndrome coronavirus 2, UniProt P0DTC2)

Bovine serum albumin [BSA]
Competitive inhibition of ACE2 binding with RBD of spike: non-competitive binding signal
